Measured values from ChEMBL document CHEMBL1921698, “Identification of small-molecule inhibitors of Trypansoma cruzi replication” (Bioorg Med Chem Lett, 2011).

Legend:
[1] = Selectivity ratio of IC50 for mouse NIH/3T3 cells to IC50 for trypomastigote form of Trypanosoma cruzi Tulahuen; type: ADME, cell-based; conditions: read-out: Ratio IC50
NIH3T3 [2] = test: Cytotoxicity against mouse NIH/3T3 cells; type: cell-based; conditions: for IC50: Mus musculus, NIH3T3; for Activity: mouse, nih3t3
Trypanosoma cruzi = test: Antitrypanosomal activity against trypomastigote form of Trypanosoma cruzi Tulahuen expressing beta-galactosidase infected in mouse NIH/3T3 cells assessed as inhibition of parasite replication after 4 days by betagalactosidase-based luminescence assay; type: functional, organism-based; conditions: NIH3T3, 96 h
[3] = Solubility of compound in phosphate buffered saline buffer; type: physicochemical
NIH3T3 [4] = test: Cytotoxicity against mouse NIH/3T3 cells up to 19.5 uM; type: cell-based
[5] = Chemical stability of the compound in phosphate buffered saline assessed as compound remaining after 48 hrs; type: physicochemical; conditions: read-out: Stability

| Compound | IC50 (Trypanosoma cruzi) | solubility [3] | remaining at 48 h [5] | selectivity ratio [1] | IC50 (NIH3T3 [2]) | Activity (NIH3T3 [2]) | Activity (NIH3T3 [4]) |
| --- | --- | --- | --- | --- | --- | --- | --- |
| COc1ccc(CCN(C)C(=O)C2CCCN(Cc3ccc(OC)c(OC)c3)C2)cc1OC (centres undefined) | 0.109 µM | > 500 µM | 84% |  |  | Non-toxic | Non-toxic |
| Cc1cc(C)n(CC(=O)N2CCCC(C(=O)c3cccc(OC(C)C)c3)C2)n1 (centres undefined) | 16.5 µM | > 200 µM |  |  |  |  |  |
| CC(C)Oc1cccc(C(=O)C2CCCN(Cc3cnn(C(C)C)c3)C2)c1 (centres undefined) | 0.054 µM | > 200 µM |  |  |  | Non-toxic |  |
| COc1ccc(CN2CCCC(C(=O)N3CCc4ccccc4C3)C2)cc1OC (centres undefined) | 3.54 µM | > 100 µM |  | 11.8 | 41.7 µM |  |  |
| CCCn1ncc(CN2CCCC(C(=O)c3cccc(OC(C)C)c3)C2)c1C (centres undefined) | 0.035 µM | > 500 µM |  |  |  | Non-toxic | Non-toxic |
| COc1cc2c(cc1OC)CN(C(=O)C1CCCN(Cc3ccccc3)C1)CC2 (centres undefined) | 0.763 µM | > 100 µM |  | 69.1 | 52.7 µM |  |  |
| COc1ccc(CN2CCCC(C(=O)N3CCCC3)C2)c(OC)c1OC (centres undefined) | 1.01 µM | > 100 µM |  |  |  | Non-toxic |  |
| Cn1cc(CN2CCCC(C(=O)c3ccc(C(C)(C)C)cc3)C2)cn1 (centres undefined) | 1.63 µM | > 200 µM |  |  |  |  |  |
| COc1ccc(C(=O)C2CCCN(CC3CCCCC3)C2)cc1OC (centres undefined) | 1.57 µM | > 200 µM |  |  |  |  |  |
| COc1ccc(C(=O)C2CCCN(CCc3ccccc3)C2)cc1OC (centres undefined) | 0.518 µM | > 200 µM |  | 37.7 | 19.5 µM |  |  |

Now from value to molecule, other results behind:

| IC50 (Trypanosoma cruzi) | solubility [3] | remaining at 48 h [5] | Compound | selectivity ratio [1] | IC50 (NIH3T3 [2]) | Activity (NIH3T3 [2]) | Activity (NIH3T3 [4]) |
| --- | --- | --- | --- | --- | --- | --- | --- |
| 9.91 µM | > 100 µM |  | CCN(CC)C(=O)C1CCCN(Cc2cccc(Cl)c2)C1 (centres undefined) | 16.6 | 164 µM |  |  |
| 0.056 µM | > 200 µM |  | CCn1ncc(CN2CCCC(C(=O)c3cccc(OC(C)C)c3)C2)c1C (centres undefined) |  |  | Non-toxic |  |
| 0.57 µM | > 100 µM |  | CN(Cc1ccccc1)C(=O)C1CCCN(Cc2cccc(Cl)c2)C1 (centres undefined) | 123 | 70.3 µM |  |  |
| 10.8 µM | > 100 µM |  | COc1ccccc1CN1CCCC(C(=O)N(C)Cc2ccccc2)C1 (centres undefined) | 7.16 | 77.3 µM |  |  |
| 1.4 µM | > 100 µM |  | COc1ccc(CCN(C)C(=O)C2CCCN(Cc3ccccc3)C2)cc1OC (centres undefined) | 33.6 | 47 µM |  |  |
| 15.9 µM | > 100 µM |  | CN(Cc1ccccc1)C(=O)C1CCCN(Cc2ccccc2C(F)(F)F)C1 (centres undefined) | 3.98 | 63.3 µM |  |  |
| 4.33 µM | > 100 µM |  | COc1ccc(CCN(C)C(=O)C2CCCN(Cc3ccc(F)cc3)C2)cc1OC (centres undefined) | 14.9 | 64.7 µM |  |  |
| 0.008 µM | > 100 µM |  | CN(Cc1ccccc1)C(=O)C1CCCN(Cc2ccc(C(F)(F)F)cc2)C1 (centres undefined) | > 1000 | 61.6 µM |  |  |
| 7.63 µM | > 100 µM |  | CN(Cc1ccccc1)C(=O)C1CCCN(Cc2ccc([N+](=O)[O-])cc2)C1 (centres undefined) | 6.68 | 51 µM |  |  |
| 3.01 µM | > 100 µM |  | CN(Cc1ccccc1)C(=O)C1CCCN(Cc2ccc(Br)cc2)C1 (centres undefined) | 24.6 | 74.3 µM |  |  |
| 0.25 µM | > 200 µM |  | CCCn1cc(CN2CCCC(C(=O)c3cccc(C(F)(F)F)c3)C2)cn1 (centres undefined) |  |  |  |  |
